Assay results reported in US12552797B2, “Process for making (3-[cyclopropylethoxy(difluoro)methyl]-6-6[5-fluoro-6-(2,2,2-trifluoroethoxy-3-pyridyl]- [1,2,4]triazolo[4,3-a]pyrazine” (Praxis Precision Medicines, Inc., priority 2019, dated 2026).
Values after ≈ are worked out from the molar mass of the structure shown. Values joined by “and” are separate entries in the source; they are usually repeats but may differ in a detail not shown here. Identical values can stand only once. Like-named read-outs stand apart in the source and are kept apart here.

Assays:
Type in all cases: physicochemical
[1] = Solubility of Compound 1 in solution formulation vehicles (visual); details: for solubility: organic solvent or mixture, thermodynamic from solid, read-out: maximum solubility (visually determined)
Experimental: 2400 μL PEG 400 was added to a 8 mL glass vial together with 3 mg of Compound 1 and mixed together by Vortex and sonicated for 5 min. Then 600 μL Cremophor RH40 was added to the container, mixed together by Vortex and sonicated for 5 min. Then 3000 μL water was added to the container, mixed together by Vortex and sonicated for 5 min.
About 15 mg compound were weighted to a 8 mL glass container and then 2 mL Prototype 2a was added to the glass container. The contents were mixed together by vortexing and sonication for 5 min.
About 15 mg compound was weighed to an 8 mL glass containers and then 2 mL of Prototype 2b was added to the container and mixed together by vortex and sonicated for 5 min. […] in Prototype 2b with 7.5 mg/mL was not clear. Then another 140 μL of Prototype 2b vehicle was added to the container and mixed together by vortex and sonicated for 5 min.
600 μL PEG 400 was added to a 4 mL glass vial together with 3 mg of Compound 1 and mixed together by Vortex and sonicated for 5 min. Then 150 μL Cremophor RH40 was added to the container and mixed together by Vortex and sonicated for 5 min. Then 750 μL water was added to the container and mixed together by vortexing and sonicated for 5 min.
Cremophor RH40, Capmul MCM Co, Triethylcitrate and Ethanol were added together on a weight basis to a glass container and mixed together to form a solution mixture. […] Additional Compound 1 was added with vortexing and sonication until Compound 1 was no longer soluble. The resulting maximum solubility was visually determined to be between 25 and 50 mg/mL.
Capryol 90, Labrasol and Transcutol HP were added together on a volumetric basis to a glass container and mixed together to form a solution mixture. […] Additional Compound 1 was added with vortexing and sonication until Compound 1 was no longer soluble. The resulting maximum solubility was visually determined to be between 60 and 80 mg/mL.

[2] = XRPD, NMR and LC-MS of Compound 1 before and after jet milling
Experimental: X-ray powder diffraction (XRPD) data were collected using a Bruker D8 Advance powder diffractometer. The samples were irradiated with copper K-alpha X-rays (λ=1.54179 Å) with the generator operating at 40 kV/40 mA. The samples were scanned in continuous mode from 3° to 40° (2 θ) with a sample rotation speed of 15 rpm and a scanning rate of 10°/min.
Proton NMR (^1H-NMR), Florine NMR (^19F-NMR) and LC-MS analyses were also carried out on Compound 1 before jet milling and after jet milling.

[3] = Particle size distribution (PSD) of Compound 1 before and after manual or jet milling (Sympatec HELOS, dry method)
Experimental: Compound 1 was milled by manual milling or jet milling to reduce particle size. For manual milling, Compound 1 was weighed into a ceramic motor and gentle milled for ˜5 mins. Particle size distribution (PSD) of Compound 1 indicated D90=77.82 μm and D90=28.27 μm before and after manual milling of Compound 1. PSD via dry method was conducted by Sympatec HELOS particle size analyzer, and dispersing system and pressure were RODOS and 0.5 bar, respectively.
For jet milling, Compound 1 was micronized by jet milling with a yield of ˜90%. Particle size of the jet-milled material was reduced to a D90 range of 4.7 to 13.5 μm.

Question: Which results are given for `CCOC(F)(F)c1nnc2cnc(-c3cnc(OCC(F)(F)F)c(F)c3)cn12` [Compound 1, 3-(ethoxydifluoromethyl)-6-(5-fluoro-6-(2,2,2-trifluoroethoxy)pyridin-3-yl)-[1,2,4]triazolo[4,3-a]pyrazine]?
Answer: dissolution in vehicle (visual) ([1]; Prototype 1: 40% PEG 400/10% Cremophor RH40/50% Water, 0.5 mg/mL): dissolved completely; dissolution in vehicle (visual) ([1]; Prototype 2a vehicle, 7.5 mg/mL): clear solution; dissolution in vehicle (visual) ([1]; Prototype 2b vehicle, 7.5 mg/mL): not clear; dissolution in vehicle (visual) ([1]; Prototype 3, 2 mg/mL): dissolved completely; solubility ([1]; Prototype 4 solution formulation vehicle, Prototype 4: 36% Cremophor RH40+45% Capmul MCM C8+9% Triethylcitrate+10% Ethanol): 25 to 50 mg/mL (≈ 61.4 to 123 mM); solubility ([1]; Prototype 5 solution formulation vehicle, Prototype 5: 40 Capryol 90+20% Labrasol+40% Transcutol HP): 60 to 80 mg/mL (≈ 147 to 196 mM); physical form change (XRPD) ([2]; after jet-milling): no physical form change; chemical or structural change (NMR, LC-MS) ([2]; due to jet milling): no observed chemical or structural change; D10 ([3]; after jet milling, batch 1): 0.7 μm; D50 ([3]; after jet milling, batch 1): 1.8 μm; D90 ([3]; after jet milling, batch 1): 4.7 μm; D10 ([3]; after jet milling, batch 2): 1.1 μm; D50 ([3]; after jet milling, batch 2): 3.7 μm; D90 ([3]; after jet milling, batch 2): 8.3 μm; D10 ([3]; after jet milling, batch 3): 0.87 μm; D50 ([3]; after jet milling, batch 3): 5.58 μm; D90 ([3]; after jet milling, batch 3): 13.5 μm; D10 ([3]; after manual milling): 0.8 μm; D50 ([3]; after manual milling): 3.6 μm; D90 ([3]; after manual milling): 28.27 μm and 28.3 μm; D10 ([3]; before milling): 1.8 μm; D50 ([3]; before milling): 22.2 μm; D90 ([3]; before milling): 77.82 μm and 77.8 μm; D10 ([3]; before milling, batch 1): 1.8 μm; D50 ([3]; before milling, batch 1): 15.4 μm; D90 ([3]; before milling, batch 1): 80.9 μm; D10 ([3]; before milling, batch 2): 13.2 μm; D50 ([3]; before milling, batch 2): 67.3 μm; D90 ([3]; before milling, batch 2): 162.1 μm; D10 ([3]; before milling, batch 3): 14.6 μm; D50 ([3]; before milling, batch 3): 56.8 μm; D90 ([3]; before milling, batch 3): 104 μm
